The target of the assay is Carbonic anhydrase 9 (Homo sapiens, UniProt Q16790). Put plainly: Inhibition of human CA9 measured by stopped flow CO2 hydrase assay.
For `NS(=O)(=O)c1ccc(-n2cc(COc3ccnc(N4CCN(C(c5ccccc5)c5ccccc5)CC4)n3)nn2)cc1`, the inhibition constant Ki is 192 nM. Next, `Cc1cc(OCc2cn(-c3ccc(S(N)(=O)=O)cc3)nn2)nc(N2CCOCC2)n1`: 30.2 nM; `Cc1cc(OCc2cn(-c3ccc(S(N)(=O)=O)cc3)nn2)nc(N2CCCCC2)n1`: 35.8 nM. In turn, `NS(=O)(=O)c1ccc(-n2cc(COc3ccnc(N4CCOCC4)n3)nn2)cc1` came in with an inhibitory constant (Ki) of 42.5 nM.

Regarding `Cc1cc(OCc2cn(-c3ccc(S(N)(=O)=O)cc3)nn2)nc(N2CCN(C(c3ccccc3)c3ccccc3)CC2)n1`, the affinity corresponds to a Ki of 21.4 nM. The compound `Cc1cc(OCc2cn(-c3ccc(S(N)(=O)=O)cc3)nn2)nc(N2CCN(c3ccccn3)CC2)n1` returned a Ki of 9.1 nM. On to `NS(=O)(=O)c1ccc(-n2cc(COc3ccnc(N4CCN(Cc5ccccc5)CC4)n3)nn2)cc1`, for which the Ki was 39.1 nM. For `Cc1cc(OCc2cn(-c3ccc(S(N)(=O)=O)cc3)nn2)nc(N2CCN(c3ccc(F)cc3)CC2)n1` the value was 466 nM. `CCN1CCN(c2nc(C)cc(OCc3cn(-c4ccc(S(N)(=O)=O)cc4)nn3)n2)CC1`: the Ki is 16.1 nM. As to `COc1ccc(-c2nc(C)cc(OCc3cn(-c4ccc(S(N)(=O)=O)cc4)nn3)n2)cc1`, the Ki stood at 29.7 nM. In the case of `Cc1cc(OCc2cn(-c3ccc(S(N)(=O)=O)cc3)nn2)nc(N2CCN(Cc3ccccc3)CC2)n1`, the inhibitory constant (Ki) was determined as 41.1 nM. `Cc1cc(OCc2cn(-c3ccc(S(N)(=O)=O)cc3)nn2)nc(-c2ncccc2C#N)n1` yielded a Ki of 32 nM. The compound `Cc1cc(OCc2cn(-c3ccc(S(N)(=O)=O)cc3)nn2)nc(N2CCN(C)CC2)n1` showed an inhibitory constant (Ki) of 24.1 nM.

Compound `NS(=O)(=O)c1ccc(-n2cc(COc3ccnc(N4CCN(Cc5ccc(Cl)cc5)CC4)n3)nn2)cc1` had an inhibition constant Ki of 32.2 nM. For `NS(=O)(=O)c1ccc(-n2cc(COc3ccnc(N4CCN(c5ccc(F)cc5)CC4)n3)nn2)cc1` the value was 25.8 nM.

`CCOC(=O)N1CCN(c2nc(C)cc(OCc3cn(-c4ccc(S(N)(=O)=O)cc4)nn3)n2)CC1` displayed a Ki of 33.4 nM.

Compound `COc1ccccc1N1CCN(c2nccc(OCc3cn(-c4ccc(S(N)(=O)=O)cc4)nn3)n2)CC1` came in with an inhibitory constant (Ki) of 44.7 nM. `COc1ccc(-c2nccc(OCc3cn(-c4ccc(S(N)(=O)=O)cc4)nn3)n2)cc1` returned an inhibitory constant (Ki) of 51.4 nM. Take `NS(=O)(=O)c1ccc(-n2cc(COc3ccnc(N4CCCCC4)n3)nn2)cc1`: the affinity corresponds to a Ki of 41.3 nM. Regarding `CCN1CCN(c2nccc(OCc3cn(-c4ccc(S(N)(=O)=O)cc4)nn3)n2)CC1`, the inhibition constant Ki was determined as 22.7 nM. `NS(=O)(=O)c1ccc(-n2cc(COc3ccnc(N4CCN(c5ccccc5)CC4)n3)nn2)cc1` returned a Ki of 26.3 nM. `NS(=O)(=O)c1ccc(-n2cc(COc3ccnc(N4CCN(c5ccccn5)CC4)n3)nn2)cc1` returned a Ki of 16.8 nM. In turn, `N#Cc1cccnc1-c1nccc(OCc2cn(-c3ccc(S(N)(=O)=O)cc3)nn2)n1` returned a Ki of 155 nM. Next, `CCOC(=O)N1CCN(c2nccc(OCc3cn(-c4ccc(S(N)(=O)=O)cc4)nn3)n2)CC1`: 1.6 nM; `Cc1cc(OCc2cn(-c3ccc(S(N)(=O)=O)cc3)nn2)nc(N2CCN(Cc3ccc(Cl)cc3)CC2)n1`: 2.9 nM; `Cc1cc(OCc2cn(-c3ccc(S(N)(=O)=O)cc3)nn2)nc(N2CCN(c3ccccc3)CC2)n1`: 32.8 nM. `CN1CCN(c2nccc(OCc3cn(-c4ccc(S(N)(=O)=O)cc4)nn3)n2)CC1` registered an inhibition constant (Ki) of 30.4 nM. `COc1ccccc1N1CCN(c2nc(C)cc(OCc3cn(-c4ccc(S(N)(=O)=O)cc4)nn3)n2)CC1` had a Ki of 36.3 nM.

For orientation: Ki means a measure of affinity in units of concentration, obtained from inhibition or displacement. Low values mean tighter binding, high ones weaker binding.

The values are drawn from ChEMBL document CHEMBL4808201, “Novel triazole-sulfonamide bearing pyrimidine moieties with carbonic anhydrase inhibitory action: Design, synthesis, computational and enzyme inhibition studies” (Bioorg Med Chem Lett, 2021).
